#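 In this assay, cells in 96-well plates receive the compound at five concentrations for 48 hours. Endpoints are linearly interpolated between the surrounding concentrations. At the TGI there is no net growth.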
# System: 786-0 renal
# Test: inhibition of tumour cell growth, NCI panel, 48 h
row,Compound,TGI [µM]
1,Oc1[nH]c2ccccc2c1N=Nc1ccccc1Cl,31.1
2,C=C1C[C@@H]2O[C@H]3[C@H]4[C@@H](C[C@@H](C)[C@@H](OC(C)=O)[C@H]42)[C@@H](C)CO[C@@]3(C)[C@H](OC(C)=O)C[C@H]1O,> 100
3,C[N+](C)([O-])CCC=C1c2ccccc2CCc2ccccc21,19.2
4,O=C(O)c1nc(-c2ccccc2)ncc1-c1nnnn1-c1ccccc1,> 100

# System: A498 renal
# Test: inhibition of tumour cell growth, NCI panel, 48 h
row,Compound,TGI [µM]
1,Oc1[nH]c2ccccc2c1N=Nc1ccccc1Cl,> 79.9
2,C=C1C[C@@H]2O[C@H]3[C@H]4[C@@H](C[C@@H](C)[C@@H](OC(C)=O)[C@H]42)[C@@H](C)CO[C@@]3(C)[C@H](OC(C)=O)C[C@H]1O,> 100
3,C[N+](C)([O-])CCC=C1c2ccccc2CCc2ccccc21,48.1
4,O=C(O)c1nc(-c2ccccc2)ncc1-c1nnnn1-c1ccccc1,> 100

# System: A549 NSCLC
# Test: inhibition of tumour cell growth, NCI panel, 48 h
row,Compound,TGI [µM]
1,Oc1[nH]c2ccccc2c1N=Nc1ccccc1Cl,> 100
2,C=C1C[C@@H]2O[C@H]3[C@H]4[C@@H](C[C@@H](C)[C@@H](OC(C)=O)[C@H]42)[C@@H](C)CO[C@@]3(C)[C@H](OC(C)=O)C[C@H]1O,> 100
3,C[N+](C)([O-])CCC=C1c2ccccc2CCc2ccccc21,> 100
4,O=C(O)c1nc(-c2ccccc2)ncc1-c1nnnn1-c1ccccc1,> 100

# System: ACHN renal
# Test: inhibition of tumour cell growth, NCI panel, 48 h
row,Compound,TGI [µM]
1,Oc1[nH]c2ccccc2c1N=Nc1ccccc1Cl,15.2
2,C=C1C[C@@H]2O[C@H]3[C@H]4[C@@H](C[C@@H](C)[C@@H](OC(C)=O)[C@H]42)[C@@H](C)CO[C@@]3(C)[C@H](OC(C)=O)C[C@H]1O,> 100
3,C[N+](C)([O-])CCC=C1c2ccccc2CCc2ccccc21,> 100
4,O=C(O)c1nc(-c2ccccc2)ncc1-c1nnnn1-c1ccccc1,> 100

# System: BT-549 breast
# Test: inhibition of tumour cell growth, NCI panel, 48 h
row,Compound,TGI [µM]
1,Oc1[nH]c2ccccc2c1N=Nc1ccccc1Cl,> 100
2,C=C1C[C@@H]2O[C@H]3[C@H]4[C@@H](C[C@@H](C)[C@@H](OC(C)=O)[C@H]42)[C@@H](C)CO[C@@]3(C)[C@H](OC(C)=O)C[C@H]1O,> 100
3,C[N+](C)([O-])CCC=C1c2ccccc2CCc2ccccc21,> 100
4,O=C(O)c1nc(-c2ccccc2)ncc1-c1nnnn1-c1ccccc1,> 100

# System: CAKI-1 renal
# Test: inhibition of tumour cell growth, NCI panel, 48 h
row,Compound,TGI [µM]
1,Oc1[nH]c2ccccc2c1N=Nc1ccccc1Cl,61.2
2,C=C1C[C@@H]2O[C@H]3[C@H]4[C@@H](C[C@@H](C)[C@@H](OC(C)=O)[C@H]42)[C@@H](C)CO[C@@]3(C)[C@H](OC(C)=O)C[C@H]1O,> 100
3,C[N+](C)([O-])CCC=C1c2ccccc2CCc2ccccc21,79.4
4,O=C(O)c1nc(-c2ccccc2)ncc1-c1nnnn1-c1ccccc1,> 100

# System: CCRF-CEM leukemia
# Test: inhibition of tumour cell growth, NCI panel, 48 h
row,Compound,TGI [µM]
1,Oc1[nH]c2ccccc2c1N=Nc1ccccc1Cl,> 100
2,C=C1C[C@@H]2O[C@H]3[C@H]4[C@@H](C[C@@H](C)[C@@H](OC(C)=O)[C@H]42)[C@@H](C)CO[C@@]3(C)[C@H](OC(C)=O)C[C@H]1O,49.5
3,C[N+](C)([O-])CCC=C1c2ccccc2CCc2ccccc21,40.7
4,O=C(O)c1nc(-c2ccccc2)ncc1-c1nnnn1-c1ccccc1,> 100

# System: COLO 205 colon
# Test: inhibition of tumour cell growth, NCI panel, 48 h
row,Compound,TGI [µM]
1,Oc1[nH]c2ccccc2c1N=Nc1ccccc1Cl,> 100
2,C=C1C[C@@H]2O[C@H]3[C@H]4[C@@H](C[C@@H](C)[C@@H](OC(C)=O)[C@H]42)[C@@H](C)CO[C@@]3(C)[C@H](OC(C)=O)C[C@H]1O,> 100
3,C[N+](C)([O-])CCC=C1c2ccccc2CCc2ccccc21,43.6
4,O=C(O)c1nc(-c2ccccc2)ncc1-c1nnnn1-c1ccccc1,> 100

# System: DU-145 prostate
# Test: inhibition of tumour cell growth, NCI panel, 48 h
row,Compound,TGI [µM]
1,Oc1[nH]c2ccccc2c1N=Nc1ccccc1Cl,> 100
2,C=C1C[C@@H]2O[C@H]3[C@H]4[C@@H](C[C@@H](C)[C@@H](OC(C)=O)[C@H]42)[C@@H](C)CO[C@@]3(C)[C@H](OC(C)=O)C[C@H]1O,> 100
3,C[N+](C)([O-])CCC=C1c2ccccc2CCc2ccccc21,70.9
4,O=C(O)c1nc(-c2ccccc2)ncc1-c1nnnn1-c1ccccc1,> 100

# System: EKVX NSCLC
# Test: inhibition of tumour cell growth, NCI panel, 48 h
row,Compound,TGI [µM]
1,Oc1[nH]c2ccccc2c1N=Nc1ccccc1Cl,> 100
2,C=C1C[C@@H]2O[C@H]3[C@H]4[C@@H](C[C@@H](C)[C@@H](OC(C)=O)[C@H]42)[C@@H](C)CO[C@@]3(C)[C@H](OC(C)=O)C[C@H]1O,> 100
3,C[N+](C)([O-])CCC=C1c2ccccc2CCc2ccccc21,59
4,O=C(O)c1nc(-c2ccccc2)ncc1-c1nnnn1-c1ccccc1,> 100

# System: HCC-2998 colon
# Test: inhibition of tumour cell growth, NCI panel, 48 h
row,Compound,TGI [µM]
1,Oc1[nH]c2ccccc2c1N=Nc1ccccc1Cl,> 100
2,C=C1C[C@@H]2O[C@H]3[C@H]4[C@@H](C[C@@H](C)[C@@H](OC(C)=O)[C@H]42)[C@@H](C)CO[C@@]3(C)[C@H](OC(C)=O)C[C@H]1O,> 100
3,O=C(O)c1nc(-c2ccccc2)ncc1-c1nnnn1-c1ccccc1,> 100

# System: HCT-116 colon
# Test: inhibition of tumour cell growth, NCI panel, 48 h
row,Compound,TGI [µM]
1,Oc1[nH]c2ccccc2c1N=Nc1ccccc1Cl,> 100
2,C=C1C[C@@H]2O[C@H]3[C@H]4[C@@H](C[C@@H](C)[C@@H](OC(C)=O)[C@H]42)[C@@H](C)CO[C@@]3(C)[C@H](OC(C)=O)C[C@H]1O,> 100
3,C[N+](C)([O-])CCC=C1c2ccccc2CCc2ccccc21,> 100
4,O=C(O)c1nc(-c2ccccc2)ncc1-c1nnnn1-c1ccccc1,> 100

# System: HCT-15 colon
# Test: inhibition of tumour cell growth, NCI panel, 48 h
row,Compound,TGI [µM]
1,Oc1[nH]c2ccccc2c1N=Nc1ccccc1Cl,> 100
2,C=C1C[C@@H]2O[C@H]3[C@H]4[C@@H](C[C@@H](C)[C@@H](OC(C)=O)[C@H]42)[C@@H](C)CO[C@@]3(C)[C@H](OC(C)=O)C[C@H]1O,> 100
3,C[N+](C)([O-])CCC=C1c2ccccc2CCc2ccccc21,95
4,O=C(O)c1nc(-c2ccccc2)ncc1-c1nnnn1-c1ccccc1,> 100

# System: HL-60(TB) leukemia
# Test: inhibition of tumour cell growth, NCI panel, 48 h
row,Compound,TGI [µM]
1,Oc1[nH]c2ccccc2c1N=Nc1ccccc1Cl,> 100
2,C=C1C[C@@H]2O[C@H]3[C@H]4[C@@H](C[C@@H](C)[C@@H](OC(C)=O)[C@H]42)[C@@H](C)CO[C@@]3(C)[C@H](OC(C)=O)C[C@H]1O,36.8
3,C[N+](C)([O-])CCC=C1c2ccccc2CCc2ccccc21,30.6
4,O=C(O)c1nc(-c2ccccc2)ncc1-c1nnnn1-c1ccccc1,> 100

# System: HOP-62 NSCLC
# Test: inhibition of tumour cell growth, NCI panel, 48 h
row,Compound,TGI [µM]
1,Oc1[nH]c2ccccc2c1N=Nc1ccccc1Cl,40.6
2,C[N+](C)([O-])CCC=C1c2ccccc2CCc2ccccc21,34.9

# — PubChem BioAssay (NCI)
